Test system: cytokine, chemokine and angiogenic factors (CAFs)
Test: Plasma cytokine, chemokine and angiogenic factor (CAF) levels pre- and post-treatment with E7080 (ELISA and multiplex)
Type: in vivo, human
Conditions: cycle 2 day 1 vs cycle 1 day 1 (baseline), 122 patients
Description: The purpose of this analysis was to measure cytokine, chemokine and angiogenic factors in blood samples, such as plasma and serum, obtained from patients in clinical trials at both pre- and post-treatment with E7080 and to identify blood biomarkers which can be used to predict whether patients will respond to treatment with E7080. For these analyses, the following criteria of response were employed, namely:
Materials and Methods: Patients who had metastatic/unresectable endometrial cancer after 1 or 2 prior platinum-based treatments received lenvatinib until disease progression or development of unmanageable toxicities. Patients received E7080 at a starting dose of 24 mg orally once daily in 28 day cycles. 133 patients were treated and evaluated for efficacy and molecular correlative analysis. This study was a part of the Phase 2 multicenter study of lenvatinib (ClinicalTrial.gov Identifier: NCT01111461). Baseline and post-treatment plasma samples were collected for molecular analyses. […] The association of progression free survival (PFS) and overall survival (OS) were analyzed. […] The ELISA plates were measured using a Molecular Devices UVmax kinetic microplate reader with SoftMax Pro 5.2 software. […] Final protein concentrations (pg/mL) were calculated from the standard curve for each assay. […]

## COc1cc2nccc(Oc3ccc(NC(=O)NC4CC4)c(Cl)c3)c2cc1C(N)=O [E7080, 4-(3-chloro-4-(cyclopropylaminocarbonyl)aminophenoxy)-7-methoxy-6-quinolinecarboxamide]
  changes in levels of CAFs at post-treatment compared to pre-treatment: Significant changes in levels of 19 CAFs among 50 CAFs tested

Source: patent publication US10517861B2, “Biomarkers for predicting and assessing responsiveness of endometrial cancer subjects to lenvatinib compounds” (Eisai R&D Management Co., Ltd., priority 2013, dated 2019)
